Counter-ions that a name gives are not always drawn. Like-named read-outs stand apart in the source and are kept apart here.
Experiments:
[1] = tested on: methylphenidate-induced gnawing; test: Methylphenidate antagonism; format: in vivo, mice
Catalepsy = format: in vivo, rat
5-HT2 receptor = biological target: T1, 5-HT2 receptor (Rattus norvegicus, UniProt P14842); test: Quipazine inhibition (head twitches); format: in vivo; conditions: for Qvipaz. inh. ED50(sc): sc 2 hours before quipazine 15 umol/kg sc
T1 construct: from tissue; host or cells: living rats (in vivo), CNS
Procedure: Quipazine and a number of other compounds, which increase 5-HT2 receptor activity in the CNS, induce a characteristic rapid shake (twitch) of the head. This response is inhibited by 5-HT2 receptor antagonists (Vetulani et al. 1980, Arnt et al. 1984).
The test compound or saline is injected subcutaneously 2 hours before subcutaneous injection of quipazine hemimalecate (15umol/kg). At least 3 dose groups, each consisting of at least 4 rats, are used. The rats are individually placed in observation cages (12×25 cm) and the number of head twitches are counted 30-40 min after quipazine administration. Inhibition of head twitches is expressed in per cent of the number of head twitches in the control group. ED 50 values are calculated by log-probit analysis.
Vetulani, J., B.B. Beduarczyk, K. Reichenberg and A. Rokost: Neuropharmacology 19, 155-158, […].
Arnt, J., J. Hyttel and J.-J. Larsen: Acta pharmacol. et toxicol. 55, 363-372, 1984.

[2] = biological target: T2, dopamine (DA) D-2 receptors (Rattus norvegicus, UniProt P61169); test: 3H-spiroperidol binding, dopamine D-2 receptors in rat striatal membranes
T2 construct: DA D-2 receptors in rat striatal membranes; from tissue; host or cells: rat striatal membranes
Procedure: 4. ^3 H-spiroperidol bindings
The affinity of compounds to dopamine (DA) D-2 receptors and serotomin2 (5-HT2) receptors was determined by in vitro receptor binding technique.
Arnt, J., J. Hyttel and J.-J. Larsen: Acta pharmacol. et toxicol.

[3] = Mus musculus, ip; i.p. test substance; mice; methylphenidate s.c. 60 mg/kg; read-out: MePh Antg. ED50(ip)
[4] = read-out: Catalep. ED50(po) 1-6 h, po, rat, 1-6 h
[5] = Mus musculus, ip, read-out: MePh Antg. ED50(ip)
[6] = read-out: Catalep. ED50(po) 24 h, po, rat, 24 h
[7] = Rattus norvegicus, sc, 24 h, read-out: Catalep. ED50 (sc) 24 h
[8] = Rattus norvegicus, sc, read-out: Catalep. ED50 (sc) 1-6 h
[9] = Mus musculus, sc, read-out: MePh Antg. ED50 (sc)
[10] = Rattus norvegicus, po, 24 h, read-out: Catalep. ED50(po) 24 h
[11] = Rattus norvegicus, po, read-out: Catalep. ED50(po) 1-6 h
[12] = Mus musculus, sc; read-out: MePh Antg. ED50 (sc)

T1 sequence (P14842 whole entry): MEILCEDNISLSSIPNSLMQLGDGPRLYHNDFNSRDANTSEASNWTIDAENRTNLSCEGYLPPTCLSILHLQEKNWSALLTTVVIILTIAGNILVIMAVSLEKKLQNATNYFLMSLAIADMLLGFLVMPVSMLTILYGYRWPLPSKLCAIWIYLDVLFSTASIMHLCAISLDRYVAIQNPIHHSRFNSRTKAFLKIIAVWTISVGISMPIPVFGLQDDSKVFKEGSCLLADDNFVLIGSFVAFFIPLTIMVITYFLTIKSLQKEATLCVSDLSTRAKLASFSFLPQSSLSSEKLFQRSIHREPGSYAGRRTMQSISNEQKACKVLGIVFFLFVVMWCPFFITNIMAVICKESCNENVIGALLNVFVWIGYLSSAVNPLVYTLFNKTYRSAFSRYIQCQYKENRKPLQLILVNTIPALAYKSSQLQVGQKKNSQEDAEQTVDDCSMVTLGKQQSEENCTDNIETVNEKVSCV
T2 sequence (P61169 whole entry): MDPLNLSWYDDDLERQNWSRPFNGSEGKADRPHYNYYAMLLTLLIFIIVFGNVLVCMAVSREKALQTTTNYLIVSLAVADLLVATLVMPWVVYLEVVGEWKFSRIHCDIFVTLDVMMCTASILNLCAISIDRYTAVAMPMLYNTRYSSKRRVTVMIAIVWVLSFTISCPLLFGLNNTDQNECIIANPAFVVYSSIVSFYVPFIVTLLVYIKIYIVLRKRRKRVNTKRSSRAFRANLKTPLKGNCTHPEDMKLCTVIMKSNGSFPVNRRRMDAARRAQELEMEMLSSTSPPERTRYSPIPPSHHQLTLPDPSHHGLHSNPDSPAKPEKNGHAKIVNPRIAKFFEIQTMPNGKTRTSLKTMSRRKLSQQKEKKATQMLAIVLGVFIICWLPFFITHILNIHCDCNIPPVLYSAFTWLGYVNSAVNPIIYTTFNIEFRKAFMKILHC

SMILES: OCCN1CCN(CC/C=C2/c3ccccc3Sc3ccc(C(F)(F)F)cc32)CC1 [Cis(Z)Flupentixol, reference compound]
- MePh Antg. ED50(ip) ([1]; i.p. test substance; mice; methylphenidate s.c. 60 mg/kg): 0.14 µmol/kg
- Catalep. ED50(po) 1-6 h (Catalepsy; po, rat, 1-6 h): 2.4 µmol/kg
- Catalep. ED50(po) 24 h (Catalepsy; po, rat, 24 h): 19 µmol/kg
- Qvipaz. inh. ED50(sc) (5-HT2 receptor): 0.042 µmol/kg

SMILES: O=C(CCCN1CCC(O)(c2ccc(Cl)cc2)CC1)c1ccc(F)cc1 [Haloperidol, reference compound]
- ED50 [1, 3]: 0.11 µmol/kg
- ED50 (Catalepsy; [4]): 1 µmol/kg

SMILES: Cc1ccc2c(c1)c(C1CCN(C)CC1)cn2-c1ccc(F)cc1 [Lu 21-037, 1-(4'-Fluorophenyl)-5-methyl-3-(1-methyl-4-piperidyl)-1H-indole, hydrobromide]
- ED50 [1, 3]: 2.1 µmol/kg

SMILES: O=C1NCCN1CCN1CC=C(c2cn(-c3ccc(F)cc3)c3ccc(F)cc23)CC1 [Lu 21-046, oxalate]
- ED50 [1, 5]: 48.1 µmol/kg

SMILES: CN1CCC(c2cn(-c3ccc(F)cc3)c3ccc(C(F)(F)F)cc23)CC1 [Lu 21-131, 1-(4'-Fluorophenyl)-3-(1-methyl-4-piperidyl)-5-trifluoromethyl-1H-indole, oxalate]
- ED50 [1, 3]: 0.6 µmol/kg
- ED50 (Catalepsy; [4]): 0.59 µmol/kg
- ED50 (Catalepsy; [6]): 2.2 µmol/kg

SMILES: CC(C)CN1CC=C(c2cn(-c3ccc(F)cc3)c3ccc(Cl)cc23)CC1 [Lu 22-134, 5-Chloro-1-(4'-fluorophenyl)-3-(1-isobutyl-1,2,3,6-tetrahydropyridin-4-yl)-1H-indole, hydrobromide]
- ED50 [1, 5]: 1.7 µmol/kg
- ED50 (Catalepsy; [7]): > 2.7 µmol/kg
- ED50 (Catalepsy; [8]): 2.7 µmol/kg
- Qvipaz. inh. ED50(sc) (5-HT2 receptor): 2.5 µmol/kg
- IC50 [2]: 5.3 nM

SMILES: Fc1ccc(-n2cc(N3CCN(CCN4CCCC4=S)CC3)c3cc(C(F)(F)F)ccc32)cc1 [Lu 23-018, 1-(4'-Fluorophenyl)-3-(4-(2-(pyrrolidin-2-thion-1-yl)-ethyl)-1-piperazino)-5-trifluoromethyl-1H-indole]
- ED50 [1, 3]: 53 µmol/kg
- ED50 (Catalepsy; [4]): 1.2 µmol/kg
- ED50 (Catalepsy; [6]): 2.9 µmol/kg

SMILES: O=C1NCCN1CCN1CC=C(c2cn(-c3ccc(F)cc3)c3ccccc23)CC1 [Lu 23-075, 1-(4'-Fluorophenyl)-3-(1-(2-imidazolidinon-1-ylethyl)-1,2,3,6-tetrahydropyridin-4-yl)-1H-indole, hydrochloride]
- ED50 [1, 9]: 19 µmol/kg
- ED50 (5-HT2 receptor; sc, 2 h, read-out: Qvipaz. inh. ED50(sc)): 0.18 µmol/kg

SMILES: CN1CC=C(c2cn(-c3ccc(F)cc3)c3ccccc23)CC1.Cl [Lu 23-083, 1-(4'-Fluorophenyl)-3-(1-methyl-1,2,3,6-tetrahydropyridin-4-yl)-1H-indole, hydrochloride]
- ED50 [1, 9]: 1.3 µmol/kg
- ED50 (Catalepsy; [10]): > 14 µmol/kg
- ED50 (Catalepsy; [11]): 9.4 µmol/kg
- Qvipaz. inh. ED50(sc) (5-HT2 receptor): 0.15 µmol/kg
- IC50 [2]: 1.8 nM

SMILES: O=[N+]([O-])c1ccc2c(c1)c(C1=CCNCC1)cn2-c1ccc(F)cc1 [Lu 23-133, 1-(4'-Fluorophenyl)-5-nitro-3-(1,2,3,6-tetrahydropyridin-4-yl)-1H-indole, maleate]
- ED50 [1, 9]: 18 µmol/kg
- ED50 (Catalepsy; [10]): > 11 µmol/kg
- ED50 (Catalepsy; [11]): 11 µmol/kg
- IC50 [2]: 5.9 nM

SMILES: OCCN1CC=C(c2cn(-c3ccc(F)cc3)c3ccc(Cl)cc23)CC1 [Lu 23-146, 5-Chloro-1-(4'-fluorophenyl)-3-(1-(2-hydroxyethyl)-1,2,3,6-tetrahydropyridin-4-yl)-1H-indole, hydrochloride]
- ED50 [1, 9]: 0.73 µmol/kg
- ED50 (Catalepsy; [8]): 1 µmol/kg

SMILES: Fc1ccc(-n2cc(C3=CCNCC3)c3cc(Cl)ccc32)cc1 [Lu 23-147, 5-Chloro-1-(4'-fluorophenyl)-3-(1,2,3,6-tetrahydropridin-4-yl)-1H-indole]
- ED50 [1, 9]: > 99 µmol/kg

SMILES: O=C1NCCN1CCN1CC=C(c2cn(-c3ccc(F)cc3)c3ccc(Cl)cc23)CC1 [Lu 23-148, 5-Chloro-1-(4'-fluorophenyl)-3-(1-(2-imidazolidinon-1-ylethyl)-1,2,3,6-tetrahydropyridin-4-yl)-1H-indole]
- ED50 [1, 9]: > 91 µmol/kg

SMILES: CN1CC=C(c2cn(-c3ccc(F)cc3)c3ccc(N)cc23)CC1 [Lu 23-149, 5-Amino-1-(4'-fluorophenyl)-3-(1-methyl-1,2,3,6-tetrahydropyridin-4-yl)-1H-indole, fumarate]
- ED50 [1, 9]: 0.45 µmol/kg

SMILES: Fc1ccc(-n2cc(C3=CCNCC3)c3cc(C(F)(F)F)ccc32)cc1 [Lu 23-155, 1-(4'-Fluorophenyl)-3-(1,2,3,6-tetrahydropyridin-4-yl)-5-trifluoromethyl-1H-indole]
- ED50 [1, 9]: 3.8 µmol/kg

SMILES: O=C1NCCN1CCN1CC=C(c2cn(-c3ccc(F)cc3)c3ccc(C(F)(F)F)cc23)CC1 [Lu 23-157, 1-(4'-Fluorophenyl)-3-(1-(2-imidazolidinon-1-ylethyl)-1,2,3,6-tetrahydropridin-4-yl)-5-trifluoromethyl-1H-indole]
- ED50 [1, 9]: 0.37 µmol/kg
- ED50 (Catalepsy; [7]): 2.6 µmol/kg
- ED50 (Catalepsy; [8]): 0.49 µmol/kg
- Qvipaz. inh. ED50(sc) (5-HT2 receptor): 0.12 µmol/kg

SMILES: O=C1CCCN1CCN1CCC(c2cn(-c3ccc(F)cc3)c3ccc(C(F)(F)F)cc23)CC1 [Lu 23-158, 1-(4'-Fluorophenyl)-3-(1-(1-pyrrolidin-2-onylethyl)-4-piperidyl)-5-trifluoromethyl-1H-indole, fumarate]
- ED50 [1, 12]: 2.9 µmol/kg

SMILES: Fc1ccc(-n2cc(C3=CCNCC3)c3cc(F)ccc32)cc1 [Lu 23-159, 5-fluoro-1-(4'-fluorophenyl)-3-(1,2,3,6-tetrahydropyridin-4-yl)-1H-indole]
- ED50 [1, 9]: 47 µmol/kg

SMILES: CC(=O)OCCN1CCN(c2cn(-c3ccc(F)cc3)c3ccc(C(F)(F)F)cc23)CC1 [Lu 23-161]
- ED50 [1, 12]: 0.05 µmol/kg
- ED50 (Catalepsy; [7]): 0.18 µmol/kg
- ED50 (Catalepsy; [8]): 0.09 µmol/kg

SMILES: CCCCCCCCCC(=O)OCCN1CCN(c2cn(-c3ccc(F)cc3)c3ccc(C(F)(F)F)cc23)CC1 [Lu 23-162]
- ED50 [1, 12]: 1.7 µmol/kg

SMILES: CCCCCCCC/C=C\CCCCCCCC(=O)OCCN1CCN(c2cn(-c3ccc(F)cc3)c3ccc(C(F)(F)F)cc23)CC1 [Lu 23-163, 1-(4'-Fluorophenyl)-3-(4-(l-oleyloxyethyl)-1-piperazino)-5-trifluoromethyl-1H-indole, dihydrochloride]
- ED50 [1, 12]: 1.1 µmol/kg

SMILES: CC(C)N1CC=C(c2cn(-c3ccc(F)cc3)c3ccc(F)cc23)CC1 [Lu 23-167, 5-fluoro-1-(4'-fluorophenyl)-3-(1-(2-propyl)-1,2,3,6-tetrahydropyridin-4-yl)-1H-indole, fumarate]
- ED50 [1, 9]: 2.7 µmol/kg
- ED50 (Catalepsy; [7]): > 11 µmol/kg
- ED50 (Catalepsy; [8]): 2.7 µmol/kg

SMILES: OCCCN1CC=C(c2cn(-c3ccc(F)cc3)c3ccc(C(F)(F)F)cc23)CC1 [Lu 23-171, 1-(4'-Fluorophenyl)-3-(1-(3-hydroxypropyl)-1,2,3,6-tetrahydropyridin-4-yl) -5trifluoromethyl-1H-indole]
- ED50 [1, 9]: 0.11 µmol/kg

SMILES: Fc1ccc(-n2cc(C3=CCN(CCn4cccc4)CC3)c3cc(C(F)(F)F)ccc32)cc1 [Lu 23-172, 1-(4'-Fluorophenyl)-3-(1-pyrrolo-2-ethyl)-1,2,3,6-tetrahydropyridin-4-yl)-5-trifluoromethyl-1H-indole. maleate]
- ED50 [1, 9]: > 70 µmol/kg
- Qvipaz. inh. ED50(sc) (5-HT2 receptor): > 0.55 µmol/kg
- IC50 ([2]; read-out: 3H-Spiroperidol bindings DA-2 receptors IC50, rat striatal membranes, in vitro): 31 nM

SMILES: Fc1ccc(-n2cc(C3=CCN(CCn4ccnc4)CC3)c3cc(C(F)(F)F)ccc32)cc1 [Lu 24-002, 1-(4'-Fluorophenyl)-3-(1-(1-imidazole-2-ethyl)-1,2,3,6-tetrahydropyridin-4-yl)-5-trifluoromethyl-1H-indole, dimaleate]
- ED50 [1, 9]: 0.45 µmol/kg
- Qvipaz. inh. ED50(sc) (5-HT2 receptor): > 0.45 µmol/kg

SMILES: CN1CC=C(c2cn(-c3cccc(F)c3)c3ccc([N+](=O)[O-])cc23)CC1 [Lu 24-004, 1-(3'-Fluorophenyl)-5-nitro-3-(1-methyl-1,2,3,6-tetrahydropyridin-4-yl)-1H-indole, maleate]
- ED50 [1, 9]: 1.1 µmol/kg

SMILES: OCCN1CC=C(c2cn(-c3ccc(C(F)(F)F)cc3)c3ccccc23)CC1 [Lu 24-012, 3-(1-(2-Hydroxyethyl)-1,2,3,6-tetrahydropyridin-4-yl)-1-(4'-trifluoromethylphenyl-1H-indole, fumarate]
- ED50 [1, 9]: > 20 µmol/kg

SMILES: CN1CC=C(c2cn(-c3nccs3)c3ccc(F)cc23)CC1 [Lu 24-013, 5-Fluro-3-(1-methyl-1,2,3,6-tetrahydropyridin-4-yl)-1-(2-thiazolo)-1H-indole, fumarate]
- ED50 [1, 9]: > 20 µmol/kg

SMILES: CN1CC=C(c2cn(-c3cccs3)c3ccc([N+](=O)[O-])cc23)CC1 [Lu 24-014, 3-(1-Methyl-1,2,3,6-tetrahydropyridin-4-yl)-5-nitro-1-(2-thienyl)-1H-indole, maleate]
- ED50 [1, 9]: > 22 µmol/kg

SMILES: CN1CC=C(c2cn(-c3ccccn3)c3ccc([N+](=O)[O-])cc23)CC1 [Lu 24-015, 3-(1-Methyl-1,2,3,6-tetrahydropyridin-4-yl)-5-nitro-1-pyridin-2-yl-1H-indole]
- ED50 [1, 9]: 3.8 µmol/kg

SMILES: CN1CC=C(c2cn(-c3cccnc3)c3ccc([N+](=O)[O-])cc23)CC1 [Lu 24-016, 3-(1-Methyl-1,2,3,6-tetrahydropyridin-4-yl)-5-nitro-1-pyridin-3-yl-1H-indole]
- ED50 [1, 9]: > 30 µmol/kg

— patent publication US4710500A, “1-(4'-fluorophenyl)-3,5-substituted indoles useful in the treatment of psychic disorders and pharmaceutical compositions thereof” (H. Lundbeck A/S, priority 1985, dated 1987)
